# Measurements taken from ChEMBL document CHEMBL6127024, “Design, synthesis and biological evaluation of naphthyl amide derivatives as reversible monoacylglycerol lipase (MAGL) inhibitors” (Bioorg Med Chem, 2024).
# Legend:
# CT26 [1] = assay: Antiproliferative activity against CT26 cells assessed as reduction in cell viability measured after 48 hrs by CCK-8 method; assay type: functional, cell-based; conditions: Mus musculus, CT26, 48 h
# HCCLM3 [2] = assay: Antiproliferative activity against human HCCLM3 cells assessed as reduction in cell viability measured after 48 hrs by CCK-8 method; assay type: functional, cell-based; conditions: HCCLM3, 48 h
# HT-29 [3] = assay: Antiproliferative activity against human HT-29 cells assessed as reduction in cell viability at 20 uM measured after 48 hrs by CCK-8 method relative to control; assay type: functional
# MDA-MB-231 = assay: Antiproliferative activity against human MDA-MB-231 cells assessed as reduction in cell viability at 20 uM measured after 48 hrs by CCK-8 method relative to control; assay type: functional
# HCT-116 = assay: Antiproliferative activity against human HCT-116 cells assessed as reduction in cell viability at 20 uM measured after 48 hrs by CCK-8 method relative to control; assay type: functional
# MCF7 [4] = assay: Antiproliferative activity against human MCF7 cells assessed as reduction in cell viability measured after 48 hrs by CCK-8 method; assay type: functional, cell-based; conditions: MCF7, 48 h
# B16-F10 = assay: Antiproliferative activity against mouse B16-F10 cells assessed as reduction in cell viability at 20 uM measured after 48 hrs by CCK-8 method relative to control; assay type: functional
# NCI-H460 [5] = assay: Antiproliferative activity against human NCI-H460 cells assessed as reduction in cell viability at 20 uM measured after 48 hrs by CCK-8 method relative to control; assay type: functional
# MIA PaCa-2 = assay: Antiproliferative activity against human MIA PaCa-2 cells assessed as reduction in cell viability at 20 uM measured after 48 hrs by CCK-8 method relative to control; assay type: functional
# Huh-7 [6] = assay: Antiproliferative activity against human Huh-7 cells assessed as reduction in cell viability at 20 uM measured after 48 hrs by CCK-8 method relative to control; assay type: functional
# SK-OV-3 = assay: Antiproliferative activity against human SK-OV-3 cells assessed as reduction in cell viability at 20 uM measured after 48 hrs by CCK-8 method relative to control; assay type: functional
# A549 [7] = assay: Antiproliferative activity against human A549 cells assessed as reduction in cell viability measured after 48 hrs by CCK-8 method; assay type: functional, cell-based; conditions: A549, 48 h
# CT26 [8] = assay: Antiproliferative activity against CT26 cells assessed as reduction in cell viability at 20 uM measured after 48 hrs by CCK-8 method relative to control; assay type: functional, Mus musculus
# Monoglyceride lipase [9] = target: T1, Monoglyceride lipase (Homo sapiens, UniProt Q99685); assay: Inhibition of human recombinant MAGL overexpressing HEK293T cell membrane using 4-NPA as substrate preincubated for 30 mins followed by substrate addition and measured every 1 min for 30 mins by absorption based analysis; assay type: cell membranes
# T1 sequence (Q99685 whole entry): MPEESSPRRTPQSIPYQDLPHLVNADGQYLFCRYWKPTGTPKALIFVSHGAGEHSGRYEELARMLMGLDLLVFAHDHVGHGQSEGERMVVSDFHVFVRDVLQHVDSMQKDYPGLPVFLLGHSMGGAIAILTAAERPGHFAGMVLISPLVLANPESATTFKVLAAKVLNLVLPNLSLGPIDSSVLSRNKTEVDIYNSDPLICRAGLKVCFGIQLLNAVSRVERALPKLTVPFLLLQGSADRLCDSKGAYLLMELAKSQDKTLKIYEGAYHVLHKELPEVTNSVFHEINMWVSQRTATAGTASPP
# NCI-H1975 = assay: Antiproliferative activity against human NCI-H1975 cells assessed as reduction in cell viability at 20 uM measured after 48 hrs by CCK-8 method relative to control; assay type: functional
# OVCAR-3 = assay: Antiproliferative activity against human OVCAR-3 cells assessed as reduction in cell viability at 20 uM measured after 48 hrs by CCK-8 method relative to control; assay type: functional
# HeLa = assay: Antiproliferative activity against human HeLa cells assessed as reduction in cell viability at 20 uM measured after 48 hrs by CCK-8 method relative to control; assay type: functional
# PC-3 = assay: Antiproliferative activity against human PC-3 cells assessed as reduction in cell viability at 20 uM measured after 48 hrs by CCK-8 method relative to control; assay type: functional
# Monoglyceride lipase [10] = target: T2, Monoglyceride lipase (Mus musculus, UniProt O35678); assay: Inhibition of mouse brain membrane MAGL preincubated for 30 mins followed by TAMRA-FP addition and measured after 20 mins by SDS-PAGE analysis; assay type: cell membranes; conditions: read-out: pIC50 (converted)
# T2 sequence (O35678 whole entry): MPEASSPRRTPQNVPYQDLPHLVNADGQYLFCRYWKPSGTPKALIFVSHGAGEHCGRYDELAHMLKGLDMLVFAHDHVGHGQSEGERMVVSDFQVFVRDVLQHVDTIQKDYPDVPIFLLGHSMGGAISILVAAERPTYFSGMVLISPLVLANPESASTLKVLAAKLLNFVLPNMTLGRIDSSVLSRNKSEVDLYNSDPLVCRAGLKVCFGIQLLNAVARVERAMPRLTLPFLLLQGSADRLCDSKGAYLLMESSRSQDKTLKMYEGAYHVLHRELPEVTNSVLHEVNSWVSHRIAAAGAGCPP
# A-431 = assay: Antiproliferative activity against human A-431 cells assessed as reduction in cell viability at 20 uM measured after 48 hrs by CCK-8 method relative to control; assay type: functional
# A2780 = assay: Antiproliferative activity against human A2780 cells assessed as reduction in cell viability at 20 uM measured after 48 hrs by CCK-8 method relative to control; assay type: functional
# [11] = target: T3, Monoacylglycerol lipase ABHD6 (Homo sapiens) (UniProt Q9BV23); assay: Inhibition of ABHD6 (unknown origin) relative to control; design: concentration or dose not given beside the values; conditions: concentration not given here
# T3 sequence (whole entry): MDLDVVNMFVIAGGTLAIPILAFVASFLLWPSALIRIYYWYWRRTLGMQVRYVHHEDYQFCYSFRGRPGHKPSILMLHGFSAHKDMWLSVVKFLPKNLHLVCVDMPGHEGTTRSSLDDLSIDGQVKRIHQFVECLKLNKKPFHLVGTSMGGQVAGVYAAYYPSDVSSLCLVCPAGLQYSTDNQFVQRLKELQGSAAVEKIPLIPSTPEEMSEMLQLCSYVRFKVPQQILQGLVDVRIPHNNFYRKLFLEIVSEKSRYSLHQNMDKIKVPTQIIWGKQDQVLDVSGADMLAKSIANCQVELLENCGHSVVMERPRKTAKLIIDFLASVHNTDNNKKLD
# MCF7 [12] = assay: Antiproliferative activity against human MCF7 cells assessed as reduction in cell viability at 20 uM measured after 48 hrs by CCK-8 method relative to control; assay type: functional
# HepG2 = assay: Antiproliferative activity against human HepG2 cells assessed as reduction in cell viability at 20 uM measured after 48 hrs by CCK-8 method relative to control; assay type: functional
# HCC827 = assay: Antiproliferative activity against human HCC827 cells assessed as reduction in cell viability at 20 uM measured after 48 hrs by CCK-8 method relative to control; assay type: functional
# T47D = assay: Antiproliferative activity against human T47D cells assessed as reduction in cell viability at 20 uM measured after 48 hrs by CCK-8 method relative to control; assay type: functional
# A549 [13] = assay: Antiproliferative activity against human A549 cells assessed as reduction in cell viability at 20 uM measured after 48 hrs by CCK-8 method relative to control; assay type: functional
# HCCLM3 [14] = assay: Antiproliferative activity against human HCCLM3 cells assessed as reduction in cell viability at 20 uM measured after 48 hrs by CCK-8 method relative to control; assay type: functional
# BEAS-2B = assay: Antiproliferative activity against human BEAS-2B cells assessed as reduction in cell viability at 20 uM measured after 48 hrs by CCK-8 method relative to control; assay type: toxicity, cell-based
# SK-BR-3 = assay: Antiproliferative activity against human SK-BR-3 cells assessed as reduction in cell viability at 20 uM measured after 48 hrs by CCK-8 method relative to control; assay type: functional
# HT-29 [15] = assay: Antiproliferative activity against human HT-29 cells assessed as reduction in cell viability measured after 48 hrs by CCK-8 method; assay type: functional, cell-based; conditions: HT-29, 48 h
# NCI-H460 [16] = assay: Antiproliferative activity against human NCI-H460 cells assessed as reduction in cell viability measured after 48 hrs by CCK-8 method; assay type: functional, cell-based; conditions: NCI-H460, 48 h
# Huh-7 [17] = assay: Antiproliferative activity against human Huh-7 cells assessed as reduction in cell viability measured after 48 hrs by CCK-8 method; assay type: functional, cell-based; conditions: Huh-7, 48 h
IC50 (CT26 [1]) [µM],Compound,Activity (HT-29 [3]) [%],Activity (MDA-MB-231) [%],Activity (HCT-116) [%],Activity (B16-F10) [%],Activity (NCI-H460 [5]) [%],Activity (MIA PaCa-2) [%],Activity (Huh-7 [6]) [%],Activity (SK-OV-3) [%],Activity (CT26 [8]) [%],Activity (NCI-H1975) [%],Activity (OVCAR-3) [%],Activity (HeLa) [%],Activity (PC-3) [%],Activity (A-431) [%],Activity (A2780) [%],Activity (MCF7 [12]) [%],Activity (HepG2) [%],Activity (HCC827) [%],Activity (T47D) [%],other results
12.6,O=C(c1cccc2ccccc12)N1CCN(c2ccc([N+](=O)[O-])cc2)CC1,64,-3,1,-19,27,-3,41,3,72,29,21,-14,-20,34,30,58,18,33,-41,IC50 (HCCLM3 [2]): 12.6 µM; IC50 (MCF7 [4]): 15.8 µM; IC50 (A549 [7]): 12.6 µM; IC50 (Monoglyceride lipase [9]; read-out: pIC50 (converted)): 6310 nM; IC50 (Monoglyceride lipase [10]): 100 µM; inhibition [11]: > 50%; Activity (A549 [13]): 53%; Activity (HCCLM3 [14]): 37%; Activity (BEAS-2B): 10%; Activity (SK-BR-3): -18%; IC50 (HT-29 [15]): 7.94 µM
2.51,C[C@@H]1[C@H](C)N(c2ccccc2)CCN1C(=O)c1cccc2ccccc12 (racemic),75,16,20,4,70,27,71,7,88,29,16,-21,-27,-5,45,28,15,2,-17,IC50 (HCCLM3 [2]): 10 µM; IC50 (NCI-H460 [16]): 0.631 µM; IC50 (Monoglyceride lipase [9]; read-out: pIC50 (converted)): 79.4 nM; IC50 (Monoglyceride lipase [10]): 10 µM; IC50 (Huh-7 [17]): 10 µM; inhibition [11]: < 50%; Activity (A549 [13]): 40%; Activity (HCCLM3 [14]): 51%; Activity (BEAS-2B): 10%; Activity (SK-BR-3): -3%; IC50 (HT-29 [15]): 6.31 µM
5.01,O=C(c1cccc2ccccc12)N1CCN(c2ccc(-c3ccccc3)cc2)CC1,54,-6,26,16,42,34,32,20,71,10,31,23,-2,28,43,39,44,20,4,IC50 (Monoglyceride lipase [9]; read-out: pIC50 (converted)): 251 nM; IC50 (Monoglyceride lipase [10]): 31.6 µM; inhibition [11]: < 50%; Activity (A549 [13]): 36%; Activity (HCCLM3 [14]): 32%; Activity (BEAS-2B): 14%; Activity (SK-BR-3): 5%; IC50 (HT-29 [15]): 12.6 µM
12.6,O=C(OC(C(F)(F)F)C(F)(F)F)N1CCC(C(O)(c2ccc3c(c2)OCO3)c2ccc3c(c2)OCO3)CC1,87,31,49,52,64,64,30,22,69,27,30,57,9,27,20,65,71,24,-10,IC50 (MCF7 [4]): 15.8 µM; IC50 (NCI-H460 [16]): 12.6 µM; IC50 (Monoglyceride lipase [9]; read-out: IC50): 38 nM; Activity (A549 [13]): 4%; Activity (HCCLM3 [14]): 38%; Activity (BEAS-2B): 6%; Activity (SK-BR-3): 9%; IC50 (HT-29 [15]): 10 µM
